Test results taken from US10251394B2, “Molecules having pesticidal utility, and intermediates, compositions, and processes, related thereto” (Dow AgroSciences LLC, priority 2016, dated 2019).

Tests used:
[1] = test system: Beet Armyworm (Spodoptera exigua); test: Bioassay on Beet Armyworm (BAW), 128-well diet tray assay; type: in vivo; conditions: for pest or weed control at 50 µg/cm2: Beet Armyworm, Table ABC, read-out: BAW rating; for mortality at 0.05 µg/cm2 / mortality at 0.5 µg/cm2 / mortality at 5 µg/cm2: 168 h, second instar larvae, five to seven days, read-out: BAW Percent control (or mortality); for mortality at 0.05 µg/cm2: 0.05 μg/cm^2 on artificial diet; for mortality at 0.5 µg/cm2: 0.5 μg/cm^2 on artificial diet; for mortality at 5 µg/cm2: 5 μg/cm^2 on artificial diet
Method in brief: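 Second-instar larvae (one to five per well) placed on artificial diet surface-treated with 50 μg/cm^2 test molecule in 90:10 acetone-water, dried, eight wells per molecule. Held at 25° C, 14:10 light-dark, five to seven days; percent mortality recorded per well and averaged across the eight wells.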

[2] = test system: Cabbage Looper (Trichoplusia ni); test: Bioassay on Cabbage Looper (CL), 128-well diet tray assay; type: in vivo; conditions: for pest or weed control at 50 µg/cm2: Cabbage Looper, Table ABC, read-out: CL rating; for mortality at 0.05 µg/cm2 / mortality at 0.5 µg/cm2 / mortality at 5 µg/cm2: 168 h, second instar larvae, five to seven days, read-out: CL Percent control (or mortality); for mortality at 0.05 µg/cm2: 0.05 μg/cm^2 on artificial diet; for mortality at 0.5 µg/cm2: 0.5 μg/cm^2 on artificial diet; for mortality at 5 µg/cm2: 5 μg/cm^2 on artificial diet
Method in brief: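 Second-instar larvae, one to five per well, placed on artificial diet surface-treated with 50 μg/cm^2 compound in acetone-water, eight wells per compound. Held 5-7 days at 25° C, 14:10 light-dark; percent mortality per well averaged across wells.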

SMILES | pest or weed control at 50 µg/cm2 [1] | pest or weed control at 50 µg/cm2 [2] | other results
C[C@@H](NC(=O)c1ccc(/C(F)=C/C(c2cc(Cl)cc(C(F)F)c2)C(F)(F)F)cc1C(F)(F)F)C(=O)NCC(F)(F)F (stereo partly drawn) [F213, 4-((Z)-3-(3-Chloro-5-(difluoromethyl)phenyl)-1,4,4,4-tetrafluorobut-1-en-1-yl)-N—((R)-1-oxo-1-((2,2,2-trifluoroethyl)amino)propan-2-yl)-2-(trifluoromethyl)benzamide] | 50 to 100% | 50 to 100% | 
C[C@@H](NC(=O)c1ccc(/C(F)=C/C(c2cc(F)c(F)c(Br)c2)C(F)(F)F)cc1C(F)(F)F)C(=O)NCC(F)(F)F (stereo partly drawn) [F214, 4-((Z)-3-(3-Bromo-4,5-difluorophenyl)-1,4,4,4-tetrafluorobut-1-en-1-yl)-N—((R)-1-oxo-1-((2,2,2-trifluoroethyl)amino)propan-2-yl)-2-(trifluoromethyl)benzamide] | 50 to 100% | 50 to 100% | 
O=C(CNC(=O)c1ccc(/C(F)=C/C(c2ccc(F)c(F)c2)C(F)(F)F)cc1C(F)(F)F)NCC(F)(F)F (centres unmarked) [F215, (Z)-4-(3-(3,4-difluorophenyl)-1,4,4,4-tetrafluorobut-1-en-1-yl)-N-(2-oxo-2-((2,2,2-trifluoroethyl)amino)ethyl)-2-(trifluoromethyl)benzamide] | 50 to 100% | 50 to 100% | 
C[C@@H](NC(=O)c1ccc(/C(F)=C/C(c2cc(F)c(F)c(C#CC(C)(C)C)c2)C(F)(F)F)cc1C(F)(F)F)C(=O)NCC(F)(F)F (stereo partly drawn) [F216, 4-((Z)-3-(3-(3,3-Dimethylbut-1-yn-1-yl)-4,5-difluorophenyl)-1,4,4,4-tetrafluorobut-1-en-1-yl)-N—((R)-1-oxo-1-((2,2,2-trifluoroethyl)amino)propan-2-yl)-2-(trifluoromethyl)benzamide] | 50 to 100% | 50 to 100% | 
O=C(CNC(=O)c1ccc(/C(F)=C/C(c2cc(F)c(F)c(Br)c2)C(F)(F)F)cc1C(F)(F)F)NCC(F)(F)F (centres unmarked) [F217, (Z)-4-(3-(3-Bromo-4,5-difluorophenyl)-1,4,4,4-tetrafluorobut-1-en-1-yl)-N-(2-oxo-2-((2,2,2-trifluoroethyl)amino)ethyl)-2-(trifluoromethyl)benzamide] | 50 to 100% | 50 to 100% | 
O=C(CNC(=O)c1ccc(/C(F)=C/C(c2cc(Cl)c(Cl)c(Cl)c2)C(F)(F)F)cc1)NCC(F)(F)F (centres unmarked) [FC1, (Z)—N-(2-Oxo-2-((2,2,2-trifluoroethyl)amino)ethyl)-4-(1,4,4,4-tetrafluoro-3-(3,4,5-trichlorophenyl)but-1-en-1-yl)benzamide] |  |  | mortality at 0.05 µg/cm2 [1]: 0%; mortality at 0.5 µg/cm2 [1]: 100%; mortality at 5 µg/cm2 [1]: 100%; mortality at 0.05 µg/cm2 [2]: 0%; mortality at 0.5 µg/cm2 [2]: 100%; mortality at 5 µg/cm2 [2]: 100%
C[C@@H](NC(=O)c1ccc(/C(F)=C/C(c2cc(Cl)c(Cl)c(Cl)c2)C(F)(F)F)cc1)C(=O)NCC(F)(F)F (stereo partly drawn) [FC2, N—((R)-1-Oxo-1-((2,2,2-trifluoroethyl)amino)propan-2-yl)-4-((Z)-1,4,4,4-tetrafluoro-3-(3,4,5-trichlorophenyl)but-1-en-1-yl)benzamide] |  |  | mortality at 0.05 µg/cm2 [1]: 0%; mortality at 0.5 µg/cm2 [1]: 100%; mortality at 5 µg/cm2 [1]: 100%; mortality at 0.05 µg/cm2 [2]: 0%; mortality at 0.5 µg/cm2 [2]: 100%; mortality at 5 µg/cm2 [2]: 100%
C[C@@H](NC(=O)c1ccc(/C(F)=C/C(c2ccc(Br)c(Cl)c2)C(F)(F)F)cc1C(F)(F)F)C(=O)N(C)CC(F)(F)F (stereo partly drawn) [PF26, 4-((Z)-3-(4-Bromo-3-chlorophenyl)-1,4,4,4-tetrafluorobut-1-en-1-yl]-N—((R)-1-(methyl(2,2,2-trifluoroethyl)amino)-1-oxopropan-2-yl)-2-(trifluoromethyl)benzamide] | 50 to 100% | 50 to 100% | 
CN(CC(F)(F)F)C(=O)C1(NC(=O)c2ccc(/C(F)=C/C(c3ccc(Br)c(Cl)c3)C(F)(F)F)cc2C(F)(F)F)CC1 (centres unmarked) [PF28, (Z)-4-(3-(4-Bromo-3-chlorophenyl)-1,4,4,4-tetrafluorobut-1-en-1-yl]-N-(1-(methyl(2,2,2-trifluoroethyl)carbamoyl)cyclopropyl)-2-(trifluoromethyl)benzamide] | 50 to 100% | 50 to 100% | 
CN(CC(F)(F)F)C(=O)CNC(=O)c1ccc(/C(F)=C/C(c2cc(Cl)cc(C(F)(F)F)c2)C(F)(F)F)cc1C(F)(F)F (centres unmarked) [PF41, (Z)-4-(3-(3-Chloro-5-(trifluoromethyl)phenyl)-1,4,4,4-tetrafluorobut-1-en-1-yl)-N-(2-(methyl(2,2,2-trifluoroethyl)amino)-2-oxoethyl)-2-(trifluoromethyl)benzamide] | 50 to 100% | 50 to 100% | 
C[C@@H](NC(=O)c1ccc(/C(F)=C/C(c2cc(Cl)cc(C(F)(F)F)c2)C(F)(F)F)cc1C(F)(F)F)C(=O)NCC(F)(F)F (stereo partly drawn) [PF42, 4-((Z)-3-(3-Chloro-5-(trifluoromethyl)phenyl)-1,4,4,4-tetrafluorobut-1-en-1-yl)-N-((1R)-1-oxo-1-((2,2,2-trifluoroethyl)amino)propan-2-yl)-2-(trifluoromethyl)benzamide] | 50 to 100% | 50 to 100% | 
C[C@@H](NC(=O)c1ccc(/C(F)=C/C(c2cc(Cl)cc(C(F)(F)F)c2)C(F)(F)F)cc1C(F)(F)F)C(=O)N(C)CC(F)(F)F (stereo partly drawn) [PF43, 4-((Z)-3-(3-Chloro-5-(trifluoromethyl)phenyl)-1,4,4,4-tetrafluorobut-1-en-1-yl)-N—((R)-1-(methyl(2,2,2-trifluoroethyl)amino)-1-oxopropan-2-yl)-2-(trifluoromethyl)benzamide] | 50 to 100% | 50 to 100% | 
O=C(NC1(C(=O)NCC(F)(F)F)CC1)c1ccc(/C(F)=C/C(c2cc(Cl)cc(C(F)(F)F)c2)C(F)(F)F)cc1C(F)(F)F (centres unmarked) [PF44] | 50 to 100% | 50 to 100% | 
CN(CC(F)(F)F)C(=O)C1(NC(=O)c2ccc(/C(F)=C/C(c3cc(Cl)cc(C(F)(F)F)c3)C(F)(F)F)cc2C(F)(F)F)CC1 (centres unmarked) [PF45, (Z)-4-(3-(3-Chloro-5-(trifluoromethyl)phenyl)-1,4,4,4-tetrafluorobut-1-en-1-yl)-N-(1-(methyl(2,2,2-trifluoroethyl)carbamoyl)cyclopropyl)-2-(trifluoromethyl)benzamide] | 50 to 100% | 50 to 100% | 
Cc1cc(C(/C=C(\F)c2ccc(C(=O)NCC(=O)N(C)CC(F)(F)F)c(C(F)(F)F)c2)C(F)(F)F)ccc1Cl (centres unmarked) [PF47, (Z)-4-(3-(4-Chloro-3-methylphenyl)-1,4,4,4-tetrafluorobut-1-en-1-yl)-N-(2-(methyl(2,2,2-trifluoroethyl)amino]-2-oxoethyl)-2-(trifluoromethyl)benzamide] | 50 to 100% | 50 to 100% | 
Cc1cc(C(/C=C(\F)c2ccc(C(=O)N[C@H](C)C(=O)NCC(F)(F)F)c(C(F)(F)F)c2)C(F)(F)F)ccc1Cl (some centres unmarked) [PF48] | 50 to 100% | 50 to 100% | 
Cc1cc(C(/C=C(\F)c2ccc(C(=O)N[C@H](C)C(=O)N(C)CC(F)(F)F)c(C(F)(F)F)c2)C(F)(F)F)ccc1Cl (stereo partly drawn) [PF49, 4-((Z)-3-(4-Chloro-3-methylphenyl)-1,4,4,4-tetrafluorobut-1-en-1-yl)-N—((R)-1-(methyl(2,2,2-trifluoroethyl)amino)-1-oxopropan-2-yl)-2-(trifluoromethyl)benzamide] | 50 to 100% | 50 to 100% | 
Cc1cc(C(/C=C(\F)c2ccc(C(=O)NC3(C(=O)NCC(F)(F)F)CC3)c(C(F)(F)F)c2)C(F)(F)F)ccc1Cl (centres unmarked) [PF50, (Z)-4-(3-(4-Chloro-3-methylphenyl)-1,4,4,4-tetrafluorobut-1-en-1-yl)-N-(1-((2,2,2-trifluoroethyl)carbamoyl)cyclopropyl)-2-(trifluoromethyl)benzamide] | 50 to 100% | 50 to 100% | 
Cc1cc(C(/C=C(\F)c2ccc(C(=O)NC3(C(=O)N(C)CC(F)(F)F)CC3)c(C(F)(F)F)c2)C(F)(F)F)ccc1Cl (centres unmarked) [PF51, (Z)-4-(3-(4-Chloro-3-methylphenyl)-1,4,4,4-tetrafluorobut-1-en-1-yl)-N-(1-(methyl(2,2,2-trifluoroethyl)carbamoyl)cyclopropyl)-2-(trifluoromethyl)benzamide] | 50 to 100% | 50 to 100% | 
C[C@@H](NC(=O)c1ccc(/C(F)=C/C(c2cc(Cl)c(Cl)c(Cl)c2)C(C)(F)F)cc1Cl)C(=O)NCC(F)(F)F (stereo partly drawn) [PF60, 2-Chloro-N—((R)-1-oxo-1-((2,2,2-trifluoroethyl)amino)propan-2-yl)-4-((Z)-1,4,4-trifluoro-3-(3,4,5-trichlorophenyl)pent-1-en-1-yl)benzamide] | 50 to 100% | 50 to 100% | 
CC(F)(F)C(/C=C(\F)c1ccc(C(=O)NC2(C(=O)NCC(F)(F)F)CC2)c(Cl)c1)c1cc(Cl)c(Cl)c(Cl)c1 (centres unmarked) [PF62, (Z)-2-Chloro-4-(1,4,4-trifluoro-3-(3,4,5-trichlorophenyl)pent-1-en-1-yl)-N-(1-((2,2,2-trifluoroethyl)carbamoyl)cyclopropyl)benzamide] | 50 to 100% | 50 to 100% | 
